Data published in ChEMBL document CHEMBL5042544, “Discovery of a Potent and Selective ATAD2 Bromodomain Inhibitor with Antiproliferative Activity in Breast Cancer Models” (J Med Chem, 2022).
Activity calls are given as the source filed them. The rule behind the calls is not given here.

Key:
[1] = Binding affinity to human ATAD2A assessed as dissociation constant by BROMOscan method
[2] = molecular target: Bromodomain-containing protein 1 (Homo sapiens) (UniProt O95696); assay: Binding affinity to human BRD1 bromodomain assessed as residual activity at 300 nM by BROMOscan method relative to control
Sequence of Bromodomain-containing protein 1 (Homo sapiens) (O95696 whole entry): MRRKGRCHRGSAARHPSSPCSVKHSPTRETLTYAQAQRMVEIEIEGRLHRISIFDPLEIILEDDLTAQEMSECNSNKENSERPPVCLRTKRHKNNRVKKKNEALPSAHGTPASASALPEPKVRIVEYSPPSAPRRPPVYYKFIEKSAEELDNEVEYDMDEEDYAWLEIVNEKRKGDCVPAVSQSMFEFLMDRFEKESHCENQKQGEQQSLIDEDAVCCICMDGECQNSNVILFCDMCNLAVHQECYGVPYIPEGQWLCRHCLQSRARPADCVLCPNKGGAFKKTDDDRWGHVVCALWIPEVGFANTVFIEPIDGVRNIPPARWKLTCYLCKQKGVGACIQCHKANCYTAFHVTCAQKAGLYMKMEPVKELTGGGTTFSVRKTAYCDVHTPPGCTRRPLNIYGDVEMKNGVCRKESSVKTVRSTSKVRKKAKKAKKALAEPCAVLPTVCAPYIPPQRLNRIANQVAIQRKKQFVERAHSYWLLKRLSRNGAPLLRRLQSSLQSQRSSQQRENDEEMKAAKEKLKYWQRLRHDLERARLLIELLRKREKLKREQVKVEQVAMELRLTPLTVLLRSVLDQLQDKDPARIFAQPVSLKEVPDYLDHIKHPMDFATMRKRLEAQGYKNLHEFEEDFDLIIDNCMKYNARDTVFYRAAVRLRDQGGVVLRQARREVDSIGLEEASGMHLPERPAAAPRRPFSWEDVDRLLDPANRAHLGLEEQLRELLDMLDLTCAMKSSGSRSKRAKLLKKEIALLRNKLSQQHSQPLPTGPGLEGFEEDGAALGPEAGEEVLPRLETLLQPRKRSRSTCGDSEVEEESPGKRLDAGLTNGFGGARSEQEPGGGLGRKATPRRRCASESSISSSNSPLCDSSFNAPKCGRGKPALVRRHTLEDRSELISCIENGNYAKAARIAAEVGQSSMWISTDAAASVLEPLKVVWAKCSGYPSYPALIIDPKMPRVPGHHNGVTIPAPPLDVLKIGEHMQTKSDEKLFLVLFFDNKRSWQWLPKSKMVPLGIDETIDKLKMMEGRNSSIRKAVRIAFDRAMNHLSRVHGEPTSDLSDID

[3] = molecular target: SWI/SNF-related matrix-associated actin-dependent regulator of chromatin subfamily A member 2 (Homo sapiens, UniProt P51531); assay: Binding affinity to human SMARCA2 bromodomain assessed as dissociation constant by BROMOscan method
[4] = molecular target: T1, ATPase family AAA domain-containing protein 2 (Homo sapiens, UniProt Q6PL18); assay: Displacement of Halo-tagged Histone H3.3 from Nanoluc-ATAD2A BD (962 to 1119 residues) (unknown origin) transfected in human HCT116 cells incubated for 18 hrs by NanoBRET assay; format: cell-based, HCT-116
T1 sequence (Q6PL18 whole entry): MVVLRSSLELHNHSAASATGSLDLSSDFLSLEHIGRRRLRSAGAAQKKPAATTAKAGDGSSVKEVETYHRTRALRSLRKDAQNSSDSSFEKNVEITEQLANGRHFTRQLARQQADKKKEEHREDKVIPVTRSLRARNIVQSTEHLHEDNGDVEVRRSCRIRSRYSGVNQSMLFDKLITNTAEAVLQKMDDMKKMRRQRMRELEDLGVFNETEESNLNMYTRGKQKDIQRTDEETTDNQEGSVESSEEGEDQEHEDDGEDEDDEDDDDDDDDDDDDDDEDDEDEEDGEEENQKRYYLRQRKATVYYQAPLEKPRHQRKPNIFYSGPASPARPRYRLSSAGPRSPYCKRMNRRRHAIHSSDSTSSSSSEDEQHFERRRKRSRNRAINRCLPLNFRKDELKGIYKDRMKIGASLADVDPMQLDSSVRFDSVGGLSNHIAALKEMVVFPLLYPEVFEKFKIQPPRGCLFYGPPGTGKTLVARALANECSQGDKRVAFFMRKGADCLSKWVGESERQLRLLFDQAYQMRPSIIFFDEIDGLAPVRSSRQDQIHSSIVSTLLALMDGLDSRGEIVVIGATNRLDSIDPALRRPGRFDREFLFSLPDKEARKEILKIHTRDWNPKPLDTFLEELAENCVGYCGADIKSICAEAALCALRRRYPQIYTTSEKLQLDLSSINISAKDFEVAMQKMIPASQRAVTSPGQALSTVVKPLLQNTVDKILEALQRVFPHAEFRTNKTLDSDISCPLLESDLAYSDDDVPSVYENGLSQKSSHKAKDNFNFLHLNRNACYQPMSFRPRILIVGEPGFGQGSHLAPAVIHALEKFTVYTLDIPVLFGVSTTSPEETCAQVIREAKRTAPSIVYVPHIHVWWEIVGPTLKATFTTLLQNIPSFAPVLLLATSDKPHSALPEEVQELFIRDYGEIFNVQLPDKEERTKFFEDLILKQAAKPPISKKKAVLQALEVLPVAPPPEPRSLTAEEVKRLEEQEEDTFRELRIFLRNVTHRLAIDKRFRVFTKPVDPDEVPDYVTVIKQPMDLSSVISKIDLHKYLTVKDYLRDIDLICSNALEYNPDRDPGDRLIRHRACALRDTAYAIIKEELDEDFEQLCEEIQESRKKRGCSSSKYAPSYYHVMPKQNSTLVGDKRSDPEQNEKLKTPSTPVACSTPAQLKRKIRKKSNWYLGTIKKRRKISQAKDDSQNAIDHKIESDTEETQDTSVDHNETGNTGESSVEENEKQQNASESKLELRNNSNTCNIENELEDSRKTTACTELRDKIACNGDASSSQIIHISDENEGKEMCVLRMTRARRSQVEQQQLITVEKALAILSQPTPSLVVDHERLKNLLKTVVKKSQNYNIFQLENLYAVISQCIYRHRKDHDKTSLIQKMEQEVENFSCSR

[5] = molecular target: Bromodomain-containing protein 2 (Homo sapiens, UniProt P25440); assay: Binding affinity to human BRD2 bromodomain 1 assessed as dissociation constant by BROMOscan method
Sequence of Bromodomain-containing protein 2 (P25440 whole entry): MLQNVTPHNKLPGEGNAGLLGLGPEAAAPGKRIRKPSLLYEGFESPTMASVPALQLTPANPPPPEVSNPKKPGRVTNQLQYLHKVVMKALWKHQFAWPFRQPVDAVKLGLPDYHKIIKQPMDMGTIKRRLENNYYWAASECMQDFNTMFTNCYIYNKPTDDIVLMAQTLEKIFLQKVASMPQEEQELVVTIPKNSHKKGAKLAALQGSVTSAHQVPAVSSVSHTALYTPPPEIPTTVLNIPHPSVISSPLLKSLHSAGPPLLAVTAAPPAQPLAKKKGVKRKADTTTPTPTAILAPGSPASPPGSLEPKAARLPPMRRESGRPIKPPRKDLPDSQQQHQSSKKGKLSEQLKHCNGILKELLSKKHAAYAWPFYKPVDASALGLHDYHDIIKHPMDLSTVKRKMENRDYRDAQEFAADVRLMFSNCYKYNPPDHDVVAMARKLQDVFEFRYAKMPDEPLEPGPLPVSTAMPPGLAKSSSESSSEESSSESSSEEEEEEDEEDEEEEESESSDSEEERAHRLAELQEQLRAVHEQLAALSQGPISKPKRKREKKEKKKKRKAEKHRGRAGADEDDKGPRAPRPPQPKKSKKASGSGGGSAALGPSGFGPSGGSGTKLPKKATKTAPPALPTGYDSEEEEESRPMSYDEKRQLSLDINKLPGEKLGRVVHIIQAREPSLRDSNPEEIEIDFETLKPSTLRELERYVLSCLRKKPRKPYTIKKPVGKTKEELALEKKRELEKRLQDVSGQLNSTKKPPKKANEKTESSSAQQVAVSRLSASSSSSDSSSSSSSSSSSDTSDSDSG

SK-BR-3 = assay: Antiproliferative activity against human SK-BR-3 cells expressing BRD1 assessed as inhibition of colony formation at 0.01 to 10 uM measured after 14 to 21 days by alamarBlue based colony formation assay; format: functional, cell-based; settings: dose 0.01-10 µM, time 14-21 day
[6] = molecular target: Histone acetyltransferase p300 (Homo sapiens, UniProt Q09472); assay: Binding affinity to human EP300 bromodomain assessed as residual activity at 300 nM by BROMOscan method relative to control
Sequence of Histone acetyltransferase p300 (Q09472 whole entry, the tested form may be a part): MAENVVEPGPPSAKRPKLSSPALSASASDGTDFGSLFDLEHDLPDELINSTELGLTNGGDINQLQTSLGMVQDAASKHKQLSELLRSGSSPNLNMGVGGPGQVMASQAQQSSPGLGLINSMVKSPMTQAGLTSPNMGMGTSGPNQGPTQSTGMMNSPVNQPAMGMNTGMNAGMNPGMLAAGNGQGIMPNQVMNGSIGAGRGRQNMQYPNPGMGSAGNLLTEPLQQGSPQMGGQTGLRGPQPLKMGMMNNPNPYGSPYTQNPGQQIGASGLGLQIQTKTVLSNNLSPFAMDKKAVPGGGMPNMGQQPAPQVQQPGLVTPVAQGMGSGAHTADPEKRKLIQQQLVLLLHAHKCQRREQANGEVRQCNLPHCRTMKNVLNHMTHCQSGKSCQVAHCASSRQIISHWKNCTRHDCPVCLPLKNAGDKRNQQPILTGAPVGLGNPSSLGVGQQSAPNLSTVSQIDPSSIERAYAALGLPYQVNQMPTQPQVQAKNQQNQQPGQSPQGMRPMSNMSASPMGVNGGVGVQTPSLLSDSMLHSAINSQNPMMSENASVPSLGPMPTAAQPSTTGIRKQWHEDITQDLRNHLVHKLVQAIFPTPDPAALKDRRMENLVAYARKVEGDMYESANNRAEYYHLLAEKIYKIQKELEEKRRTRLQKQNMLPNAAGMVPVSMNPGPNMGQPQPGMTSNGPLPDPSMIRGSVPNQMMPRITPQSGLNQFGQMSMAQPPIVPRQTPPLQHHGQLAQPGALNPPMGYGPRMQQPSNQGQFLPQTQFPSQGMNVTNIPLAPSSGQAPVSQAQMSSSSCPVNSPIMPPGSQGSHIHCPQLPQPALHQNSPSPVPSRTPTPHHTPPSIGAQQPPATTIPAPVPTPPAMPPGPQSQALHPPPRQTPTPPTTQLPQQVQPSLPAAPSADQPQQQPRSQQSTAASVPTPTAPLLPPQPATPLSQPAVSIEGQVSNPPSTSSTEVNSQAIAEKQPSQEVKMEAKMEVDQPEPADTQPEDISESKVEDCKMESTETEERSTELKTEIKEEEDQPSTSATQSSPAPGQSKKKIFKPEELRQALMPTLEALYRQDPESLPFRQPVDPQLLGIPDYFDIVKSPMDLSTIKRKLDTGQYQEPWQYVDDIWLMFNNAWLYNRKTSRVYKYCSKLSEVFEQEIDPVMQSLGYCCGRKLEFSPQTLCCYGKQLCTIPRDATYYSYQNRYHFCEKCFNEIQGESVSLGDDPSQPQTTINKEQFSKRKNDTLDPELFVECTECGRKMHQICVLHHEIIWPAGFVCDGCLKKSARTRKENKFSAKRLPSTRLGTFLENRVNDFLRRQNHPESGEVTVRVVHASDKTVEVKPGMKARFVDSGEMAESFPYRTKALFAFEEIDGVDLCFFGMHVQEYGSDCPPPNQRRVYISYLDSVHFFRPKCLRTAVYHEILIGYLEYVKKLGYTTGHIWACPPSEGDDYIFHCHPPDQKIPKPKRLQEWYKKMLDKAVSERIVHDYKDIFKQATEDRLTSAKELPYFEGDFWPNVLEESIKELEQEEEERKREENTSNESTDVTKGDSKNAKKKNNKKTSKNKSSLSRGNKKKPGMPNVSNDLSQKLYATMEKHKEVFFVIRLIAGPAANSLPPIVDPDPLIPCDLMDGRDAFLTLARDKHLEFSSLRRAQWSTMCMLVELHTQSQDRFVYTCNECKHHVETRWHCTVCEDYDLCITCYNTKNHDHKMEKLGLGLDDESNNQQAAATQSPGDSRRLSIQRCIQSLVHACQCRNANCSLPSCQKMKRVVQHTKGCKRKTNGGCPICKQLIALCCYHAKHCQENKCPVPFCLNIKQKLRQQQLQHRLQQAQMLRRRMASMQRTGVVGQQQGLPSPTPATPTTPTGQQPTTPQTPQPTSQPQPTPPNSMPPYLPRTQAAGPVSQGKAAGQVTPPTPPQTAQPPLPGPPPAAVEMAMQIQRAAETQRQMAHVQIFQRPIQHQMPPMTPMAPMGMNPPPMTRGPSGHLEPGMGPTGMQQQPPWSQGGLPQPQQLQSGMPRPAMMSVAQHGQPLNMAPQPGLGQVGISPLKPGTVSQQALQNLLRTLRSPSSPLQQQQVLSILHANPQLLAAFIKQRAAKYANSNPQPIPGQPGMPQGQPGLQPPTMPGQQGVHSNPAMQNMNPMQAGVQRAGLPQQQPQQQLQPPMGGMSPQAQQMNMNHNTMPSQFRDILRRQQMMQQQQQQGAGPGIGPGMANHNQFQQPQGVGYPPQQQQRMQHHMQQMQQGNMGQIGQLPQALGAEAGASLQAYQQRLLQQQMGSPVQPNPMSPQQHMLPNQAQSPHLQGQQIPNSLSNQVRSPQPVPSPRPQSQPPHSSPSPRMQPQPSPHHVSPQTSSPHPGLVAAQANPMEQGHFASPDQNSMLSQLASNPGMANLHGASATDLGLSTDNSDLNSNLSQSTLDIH

[7] = molecular target: ATPase family AAA domain-containing protein 2B (Homo sapiens) (UniProt Q9ULI0); assay: Binding affinity to human ATAD2B bromodomain assessed as residual activity at 300 nM by BROMOscan method relative to control

`Cc1nnc2c(NC3CCN(CC(C)(C)F)CC3)cc(C(=O)N3[C@@H]4c5ccccc5C[C@H]3C(=O)N[C@@H]4C(C)C)nn12` gave a pKd [1] of 8.9, an Activity [2] of 75% and a Kd [3] of over 3.16 µM. The IC50 [4] was 126 nM, the Kd [5] was 126 nM and the Activity (SK-BR-3) was “inactive”. For the same compound, the Activity [6] was 41% and the Activity [7] was 0%.
